Experimental data from patent US4888417A, “Therapeutic and prophylactic agents for peptic ulcer” (Green Cross Corporation, priority 1985, dated 1989).

Key:
[1] = tested on: Serotonin Induced Ulcer; assay: Serotonin Induced Ulcer; type: in vivo, Wister strain male rats; set-up: unit not given here; details: 30 min before serotonin; for Ulcer Index: mean ± standard error (n=8)
Experimental: Wister strain male rats (weighing 160 to 180 g) were used after one day's fasting. Serotonin creatinine sulfate (30 mg/ml) was subcutaneously administered to the rats on the back at a rate of 1 ml per kg of the body weight. The stomach was excised 5 hours after administration of serotonin, and the total area of hemorrhagic erosion was measured as an ulcer index. The test drug was intragastrically administered to the rats through an oral Zonde (probe) 30 minutes before administration of serotonin.
(§1) Each numeral in the table indicates the mean ± standard error (n=8)
(§2) All the test drugs (compounds of this invention) were intragastrically administered by an oral Zonde (probe).

[2] = tested on: Stress Ulcer; assay: Stress Ulcer; type: in vivo, Wister strain male rats; details: immediately before stress; for Ulcer Index: mean ± standard error (n=8)
Experimental: Wister strain male rats (weighing 230-250 g) were fasted for 2 days, then, while confined in a Tokyo University Pharmaceutics Laboratory model cage, they were immersed up to the xiphocosta and pulled up 6 hours later, to determine the ulcer index. That is, the rats were clubbed to death, the major axis of hemorrhagic erosion was measured, and the total was made the ulcer index. the test drug was intragastrically administered through an oral Zonde (probe) immediately before the loading of stress.
as §1, §2

[3] = tested on: Ethanol Induced Ulcer; assay: Ethanol Induced Ulcer; type: in vivo, Wister strain male rats; set-up: Rate of Inhibition: unit not given here; details: 30 min before ethanol; for Ulcer Index: mean ± standard error (n=8)
Experimental: Wister strain male rats (weighing 160-180 g) were fasted for one day and intragastrically administed with 50% (v/v) ethanol at a rate of 1 ml per rat. The test drug was intragastirically administered through an oral Zonde (probe) 30 minutes before administration of ethanol. One hour after administration of ethanol, the rats were poisoned to death by inhalation of chloroform, each stomach was excised, the major axis of hemorrhagic erosion on the stomach part was measured, and the total was made an ulcer index.
as §1, §2

[4] = anti-ulcer activity used as index in fractionation; details: single (peak) component from HPLC fractionation of cinnamon extract
Experimental: After washing with water, the resin was eluted using a 40 to 80% methanol aqueous solution as an eluent; the eluted fraction thus obtained was concentrated under reduced pressure and freeze dried to afford 148 g of a crude powder.
50 kg of cinnamon was treated with hot water at 60° to 100° C. for 1 to 2 hours, and the resultant extract was adsorbed onto 100 to 140 liters of the Amberlite XAD-2 resin. This resin was washed with water, then eluted using a 40 to 80% aqueous methanol solution as an eluent; the eluted fraction thus obtained was concentrated under reduced pressure and freeze dried to obtain 148 g of a crude powder.
200 kg of cinammon was treated with hot water at 60° to 100° C. for 1 to 2 hours, and the resultant extract was adsorbed onto 400 to 500 liters of the Amberlite XAD-2 resin. This resin was washed with water, then eluted with a 40 to 80% aqueous methanol solution as an eluent, the eluted fraction thus obtained was concentrated under reduced pressure and freeze-dried to obtain 590 g of a crude powder.

CC(=O)C=C=C1C(C)(C)CC(O[C@@H]2O[C@H](CO[C@@H]3OC[C@](O)(CO)[C@H]3O)[C@@H](O)[C@H](O)[C@H]2O)CC1(C)O (stereo partly drawn) [(III-1)]
Rate of Inhibition ([1]; 0.075 μg/kg intragastric): 2.9
Ulcer Index ([1]; 0.075 μg/kg intragastric): 17.0 ± 3.1
Rate of Inhibition ([1]; 0.15 μg/kg intragastric): 75.4
Ulcer Index ([1]; 0.15 μg/kg intragastric): 4.3 ± 1.1
Rate of Inhibition ([2]; 0.075 μg/kg intragastric): 41.3
Ulcer Index ([2]; 0.075 μg/kg intragastric): 16.6 ± 3.2
Rate of Inhibition ([2]; 0.15 μg/kg intragastric): 66.8
Ulcer Index ([2]; 0.15 μg/kg intragastric): 9.4 ± 2.3
Rate of Inhibition ([3]; 0.075 μg/kg intragastric): 51.6
Ulcer Index ([3]; 0.075 μg/kg intragastric): 24.7 ± 10.6
Rate of Inhibition ([3]; 0.15 μg/kg intragastric): 56.5
Ulcer Index ([3]; 0.15 μg/kg intragastric): 22.2 ± 8.1
anti-ulcer activity among fractions [4]: manifesting the activity most strongly

CC1=C(/C=C/C(CO)CO)C(C)(CO[C@@H]2O[C@H](CO)[C@@H](O)[C@H](O)[C@H]2O)CCC1=O (stereo partly drawn) [(IV-1), 2,4-dimethyl-3-(4-hydroxy-3-hydroxymethyl-1-butenyl)-4-(β-D-glucopyranosyl)oxymethyl-2-cyclohexen-1-one]
Rate of Inhibition ([1]; 0.1 μg/kg intragastric): 47.0
Ulcer Index ([1]; 0.1 μg/kg intragastric): 7.1 ± 3.4
Rate of Inhibition ([1]; 1 μg/kg intragastric): 51.5
Ulcer Index ([1]; 1 μg/kg intragastric): 6.5 ± 2.5
anti-ulcer activity among fractions [4]: manifesting the activity most strongly

COc1cc(O)cc(OC)c1OC [(II-2), 3,4,5-trimethoxyphenol]
Rate of Inhibition ([1]; 0.05 μg/kg intragastric): 26.7
Ulcer Index ([1]; 0.05 μg/kg intragastric): 15.1 ± 4.6
Rate of Inhibition ([1]; 0.15 μg/kg intragastric): 45.6
Ulcer Index ([1]; 0.15 μg/kg intragastric): 11.2 ± 2.4

CC1=C(/C=C/C(CO)CO)C(C)(CO)CCC1=O (stereo not drawn) [(IV-2)]
Rate of Inhibition ([1]; 0.06 μg/kg intragastric): 65.7
Ulcer Index ([1]; 0.06 μg/kg intragastric): 4.6 ± 1.2
Rate of Inhibition ([1]; 6 μg/kg intragastric): 76.9
Ulcer Index ([1]; 6 μg/kg intragastric): 3.1 ± 1.2

COc1cc(O[C@@H]2O[C@H](CO[C@@H]3OC[C@](O)(CO)[C@H]3O)[C@@H](O)[C@H](O)[C@H]2O)cc(OC)c1OC [(II-1), 3,4,5-trimethoxyphenol-β-D-apiofranosyl-(1→6)-β-D-glucopyranoside]
Rate of Inhibition ([1]; 0.15 μg/kg intragastric): 57.1
Ulcer Index ([1]; 0.15 μg/kg intragastric): 7.5 ± 2.3
Rate of Inhibition ([1]; 0.30 μg/kg intragastric): 70.9
Ulcer Index ([1]; 0.30 μg/kg intragastric): 5.1 ± 1.9
Rate of Inhibition ([2]; 0.15 μg/kg intragastric): 23.7
Ulcer Index ([2]; 0.15 μg/kg intragastric): 21.6 ± 5.8
Rate of Inhibition ([2]; 0.30 μg/kg intragastric): 58.5
Ulcer Index ([2]; 0.30 μg/kg intragastric): 11.7 ± 3.0
Rate of Inhibition ([3]; 0.15 μg/kg intragastric): 11.1
Ulcer Index ([3]; 0.15 μg/kg intragastric): 45.3 ± 14.0
Rate of Inhibition ([3]; 0.30 μg/kg intragastric): 47.1
Ulcer Index ([3]; 0.30 μg/kg intragastric): 27.0 ± 7.4
anti-ulcer activity among fractions [4]: manifesting the activity most strongly
